Assays:
Assay type in all cases: biochemical
[1] = molecular target: T1, human VEGF receptor (VEGFR-2) (Homo sapiens, UniProt P35968); experiment: VEGFR2 kinase assay; conditions: His-VEGFR-2 cytoplasmic domain, 3.6 μM ATP; Table IV, amide or urea linker; read-out: VEGFR2 Enzyme IC50
T1 construct: The cytoplasmic domain of the human VEGF receptor (VEGFR-2) was expressed; His; made in house; host or cells: insect cells (baculovirus)
Procedure: The cytoplasmic domain of the human VEGF receptor (VEGFR-2) was expressed as a Histidine-tagged fusion protein following infection of insect cells using an H is engineered baculovirus. […] Kinase assays were performed in 96 well microtiter plates that were coated overnight with 30 µg of poly-Glu-Tyr (4:1) in 10 mM Phosphate Buffered Saline (PBS), pH 7.2-7.4. The plates were incubated with 1% BSA and then washed four times with PBS prior to starting the reaction. Reactions were carried out in 120 µL reaction volumes containing 3.6 µM ATP in kinase buffer (50 mM Hepes buffer pH 7.4, 20 mM MgCl2, 0.1 mM MnCl2 and 0.2 mM Na3 VO4). […] Reactions were initiated by the addition 0.5 ng of purified protein. Following a ten minute incubation at 25 degree. […] IC50 values for compound inhibition were calculated directly from graphs of optical density (arbitrary units) versus compound concentration following subtraction of blank values.

VEGFR1 = VEGFR1 (Homo sapiens, UniProt P17948); experiment: VEGFR1 enzyme assay; conditions: Table IV, amide or urea linker
PDGFβ = PDGFβ (Homo sapiens, UniProt P09619); experiment: PDGFβ enzyme assay; conditions: Table IV, amide or urea linker
Chain of PDGFβ (P09619 33-1106): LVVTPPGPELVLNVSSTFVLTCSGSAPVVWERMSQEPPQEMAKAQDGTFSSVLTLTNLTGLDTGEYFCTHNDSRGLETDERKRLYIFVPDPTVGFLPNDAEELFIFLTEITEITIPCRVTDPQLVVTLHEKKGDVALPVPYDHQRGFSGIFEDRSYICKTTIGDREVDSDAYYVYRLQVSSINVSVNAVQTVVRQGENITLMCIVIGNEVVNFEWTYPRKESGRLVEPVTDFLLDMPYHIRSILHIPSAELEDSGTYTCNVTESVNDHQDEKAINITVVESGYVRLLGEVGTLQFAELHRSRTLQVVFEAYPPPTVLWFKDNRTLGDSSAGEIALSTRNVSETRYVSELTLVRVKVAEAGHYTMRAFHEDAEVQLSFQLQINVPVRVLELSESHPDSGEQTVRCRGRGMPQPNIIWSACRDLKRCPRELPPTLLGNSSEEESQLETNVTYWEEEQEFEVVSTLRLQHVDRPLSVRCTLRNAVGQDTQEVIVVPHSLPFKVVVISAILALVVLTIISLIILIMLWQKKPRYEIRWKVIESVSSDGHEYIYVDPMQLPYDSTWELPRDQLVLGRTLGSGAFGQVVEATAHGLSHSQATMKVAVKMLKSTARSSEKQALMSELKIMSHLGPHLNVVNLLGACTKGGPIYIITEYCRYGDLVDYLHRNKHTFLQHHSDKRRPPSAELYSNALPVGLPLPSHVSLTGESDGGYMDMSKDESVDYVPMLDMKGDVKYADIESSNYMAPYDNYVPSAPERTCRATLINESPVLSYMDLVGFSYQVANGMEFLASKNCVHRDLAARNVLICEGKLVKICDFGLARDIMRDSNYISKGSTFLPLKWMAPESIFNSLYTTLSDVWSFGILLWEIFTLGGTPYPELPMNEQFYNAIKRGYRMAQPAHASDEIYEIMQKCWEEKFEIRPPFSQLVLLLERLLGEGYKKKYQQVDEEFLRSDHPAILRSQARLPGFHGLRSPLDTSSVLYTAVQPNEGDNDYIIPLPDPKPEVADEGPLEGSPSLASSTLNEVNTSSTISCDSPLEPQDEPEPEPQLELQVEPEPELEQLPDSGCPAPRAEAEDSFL

Chain of VEGFR1 (P17948 27-1338, species assumed): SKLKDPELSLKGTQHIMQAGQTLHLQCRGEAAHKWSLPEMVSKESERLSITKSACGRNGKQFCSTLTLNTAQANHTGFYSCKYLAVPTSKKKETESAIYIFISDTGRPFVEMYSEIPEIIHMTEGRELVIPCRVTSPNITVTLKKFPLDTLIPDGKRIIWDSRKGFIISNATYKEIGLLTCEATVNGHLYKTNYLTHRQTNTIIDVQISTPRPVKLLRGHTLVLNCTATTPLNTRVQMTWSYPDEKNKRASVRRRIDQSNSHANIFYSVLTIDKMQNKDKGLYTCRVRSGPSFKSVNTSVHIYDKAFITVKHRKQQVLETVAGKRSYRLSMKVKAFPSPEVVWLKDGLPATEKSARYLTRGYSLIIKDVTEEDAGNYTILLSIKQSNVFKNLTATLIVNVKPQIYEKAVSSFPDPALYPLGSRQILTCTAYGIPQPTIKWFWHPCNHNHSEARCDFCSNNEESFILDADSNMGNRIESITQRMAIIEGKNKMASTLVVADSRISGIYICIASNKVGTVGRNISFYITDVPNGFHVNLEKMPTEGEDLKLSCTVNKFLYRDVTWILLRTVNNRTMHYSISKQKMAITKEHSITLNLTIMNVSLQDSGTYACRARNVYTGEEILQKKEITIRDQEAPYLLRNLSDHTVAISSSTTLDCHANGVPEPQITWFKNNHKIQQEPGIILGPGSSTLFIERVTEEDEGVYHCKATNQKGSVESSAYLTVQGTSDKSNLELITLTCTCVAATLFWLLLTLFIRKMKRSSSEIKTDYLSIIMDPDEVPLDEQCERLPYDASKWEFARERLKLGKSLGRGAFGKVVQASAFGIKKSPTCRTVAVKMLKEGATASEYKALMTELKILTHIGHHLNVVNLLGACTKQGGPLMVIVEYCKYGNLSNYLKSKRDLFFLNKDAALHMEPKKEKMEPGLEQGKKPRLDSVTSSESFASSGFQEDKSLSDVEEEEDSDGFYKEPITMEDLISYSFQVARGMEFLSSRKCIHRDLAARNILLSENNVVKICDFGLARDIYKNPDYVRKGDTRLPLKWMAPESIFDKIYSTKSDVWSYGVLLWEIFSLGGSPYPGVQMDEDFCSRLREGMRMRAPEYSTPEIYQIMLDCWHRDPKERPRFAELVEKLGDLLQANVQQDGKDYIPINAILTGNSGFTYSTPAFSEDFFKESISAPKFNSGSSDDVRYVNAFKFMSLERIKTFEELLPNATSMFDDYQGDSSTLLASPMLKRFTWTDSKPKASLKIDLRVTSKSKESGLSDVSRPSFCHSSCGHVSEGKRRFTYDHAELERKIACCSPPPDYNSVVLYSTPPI
T1 sequence (P35968 786-1356 limits assumed): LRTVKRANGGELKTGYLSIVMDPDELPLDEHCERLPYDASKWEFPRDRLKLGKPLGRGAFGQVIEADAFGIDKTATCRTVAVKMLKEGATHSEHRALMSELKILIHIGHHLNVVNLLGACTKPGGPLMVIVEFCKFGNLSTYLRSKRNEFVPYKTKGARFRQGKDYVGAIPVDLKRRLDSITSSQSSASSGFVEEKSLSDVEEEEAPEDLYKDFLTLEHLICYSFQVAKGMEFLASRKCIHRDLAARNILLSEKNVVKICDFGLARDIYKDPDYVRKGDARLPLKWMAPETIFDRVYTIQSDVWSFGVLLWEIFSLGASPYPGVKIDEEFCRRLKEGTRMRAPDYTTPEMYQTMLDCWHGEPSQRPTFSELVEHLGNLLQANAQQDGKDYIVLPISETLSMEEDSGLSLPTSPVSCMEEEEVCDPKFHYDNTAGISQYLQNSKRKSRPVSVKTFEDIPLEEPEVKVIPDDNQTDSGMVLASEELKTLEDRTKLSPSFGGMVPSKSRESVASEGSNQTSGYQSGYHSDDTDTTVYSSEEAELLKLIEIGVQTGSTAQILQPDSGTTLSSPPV

Compound	IC50 [1]	IC50 (VEGFR1)	IC50 (PDGFβ)
Cc1ccc(F)c(NC(=O)Nc2ccc(Oc3ccnc(-c4cc(C(=O)N5CCN(CC(=O)O)CC5)c[nH]4)c3)cc2F)c1 [Example 218, {4-[(5-{4-[3-fluoro-4-({[(2-fluoro-5-methylphenyl)amino]carbonyl}amino)phenoxy]pyridin-2-yl}-1H-pyrrol-3-yl)carbonyl]piperazin-1-yl}acetic acid]	5 nM	9 nM	16 nM
Cc1ccc(F)c(NC(=O)Nc2ccc(Oc3ccnc(-c4cc(C(=O)NCCCN5CCCC5C(=O)O)c[nH]4)c3)cc2F)c1 (stereo not drawn) [Example 220, 1-(3-{[(5-{4-[3-fluoro-4-({[(2-fluoro-5-methylphenyl)amino]carbonyl}amino)phenoxy]pyridin-2-yl}-1H-pyrrol-3-yl)carbonyl]amino}propyl)pyrrolidine-2-carboxylic acid]	13 nM	11 nM	23 nM
Cc1ccc(F)c(NC(=O)Nc2ccc(Oc3ccnc(-c4cc(C(=O)NCCN)c[nH]4)c3)cc2F)c1 [Example 222, N-(2-aminoethyl)-5-{4-[3-fluoro-4-({[(2-fluoro-5-methylphenyl)amino]carbonyl}amino)phenoxy]pyridin-2-yl}-1H-pyrrole-3-carboxamide]	9 nM	15 nM	29 nM
Cc1ccc(F)c(NC(=O)Nc2ccc(Oc3ccnc(-c4cc(C(=O)NCCCN)c[nH]4)c3)cc2F)c1 [Example 223, N-(3-aminopropyl)-5-{4-[3-fluoro-4-({[(2-fluoro-5-methylphenyl)amino]carbonyl}amino)phenoxy]pyridin-2-yl}-1H-pyrrole-3-carboxamide]	13 nM	12 nM	16 nM
COC(=O)C1CCCN1CCCNC(=O)c1c[nH]c(-c2cc(Oc3ccc(NC(=O)Nc4cc(C)ccc4F)c(F)c3)ccn2)c1 (stereo not drawn) [Example 228, methyl 1-(3-{[(5-{4-[3-fluoro-4-({[(2-fluoro-5-methylphenyl)amino]carbonyl}amino)phenoxy]pyridin-2-yl}-1H-pyrrol-3-yl)carbonyl]amino}propyl)pyrrolidine-2-carboxylate]	11 nM	8 nM	9 nM
Cc1ccc(F)c(NC(=O)Nc2ccc(Oc3ccnc(-c4cc(C(=O)NCCCC(=O)OCC(CO)(CO)CO)c[nH]4)c3)cc2)c1 [Example 234, 3-hydroxy-2,2-bis(hydroxymethyl)propyl 4-{[(5-{4-[4-({[(2-fluoro-5-methylphenyl)amino]carbonyl}amino)phenoxy]pyridin-2-yl}-1H-pyrrol-3-yl)carbonyl]amino}butanoate]	8 nM	11 nM	17 nM
Cc1ccc(F)c(NC(=O)c2ccc(F)c(Oc3ccnc(-c4cc(C(=O)NCCCO)c[nH]4)c3)c2)c1 [Example 244, 5-[4-(2-fluoro-5-{[(2-fluoro-5-methylphenyl)amino]carbonyl}phenoxy)pyridin-2-yl]-N-(3-hydroxypropyl)-1H-pyrrole-3-carboxamide]	12 nM	31 nM	94 nM
Cc1ccc(F)c(NC(=O)Nc2ccc(Oc3ccnc(-c4cc(C(=O)NCCCN5CCCC5C(=O)O)c[nH]4)c3)cc2)c1 (stereo not drawn) [Example 247, 1-(3-{[(5-{4-[4-({[(2-fluoro-5-methylphenyl)amino]carbonyl}amino)phenoxy]pyridin-2-yl}-1H-pyrrol-3-yl)carbonyl]amino}propyl)pyrrolidine-2-carboxylic acid]	15 nM	25 nM	21 nM
Cc1ccc(F)c(NC(=O)c2ccc(F)c(Oc3ccnc(-c4cc(C(=O)N[C@@H](CCC(=O)OC(C)(C)C)C(=O)O)c[nH]4)c3)c2)c1 [Example 257, 5-tert-butoxy-2-[({5-[4-(2-fluoro-5-{[(2-fluoro-5-methylphenyl)amino]carbonyl}phenoxy)pyridin-2-yl]-1H-pyrrol-3-yl}carbonyl)amino]-5-oxopentanoic acid]	53 nM	18 nM	180 nM

Next, values leading:

IC50 [1]	IC50 (VEGFR1)	IC50 (PDGFβ)	Compound
33 nM	46 nM	55 nM	COC(=O)CC[C@H](NC(=O)c1c[nH]c(-c2cc(Oc3cc(C(=O)Nc4cc(C)ccc4F)ccc3F)ccn2)c1)C(=O)OC [Example 249, dimethyl 2-[({5-[4-(2-fluoro-5-{[(2-fluoro-5-methylphenyl)amino]carbonyl}phenoxy)pyridin-2-yl]-1H-pyrrol-3-yl}carbonyl)amino]pentanedioate]
24 nM	8 nM	54 nM	Cc1ccc(F)c(NC(=O)Nc2ccc(Oc3ccnc(-c4cc(C(=O)NCCCN)c[nH]4)c3)cc2)c1 [Example 250, N-(3-aminopropyl)-5-{4-[4-({[(2-fluoro-5-methylphenyl)amino]carbonyl}amino)phenoxy]pyridin-2-yl}-1H-pyrrole-3-carboxamide]
46 nM	18 nM	79 nM	Cc1ccc(F)c(NC(=O)Nc2ccc(Oc3ccnc(-c4cc(C(=O)NCCCNC(=O)OC(C)(C)C)c[nH]4)c3)cc2)c1 [Example 251, tert-butyl (3-{[(5-{4-[4-({[(2-fluoro-5-methylphenyl)amino]carbonyl}amino)phenoxy]pyridin-2-yl}-1H-pyrrol-3-yl)carbonyl]amino}propyl)carbamate]
24 nM	25 nM	99 nM	Cc1ccc(F)c(NC(=O)c2ccc(F)c(Oc3ccnc(-c4cc(C(=O)NCCCN)c[nH]4)c3)c2)c1 [Example 252, N-(3-aminopropyl)-5-[4-(2-fluoro-5-{[(2-fluoro-5-methylphenyl)amino]carbonyl}phenoxy)pyridin-2-yl]-1H-pyrrole-3-carboxamide]
64 nM	36 nM	200 nM	Cc1ccc(F)c(NC(=O)c2ccc(F)c(Oc3ccnc(-c4cc(C(=O)NCCCNC(=O)OC(C)(C)C)c[nH]4)c3)c2)c1 [Example 253, tert-butyl {3-[({5-[4-(2-fluoro-5-{[(2-fluoro-5-methylphenyl)amino]carbonyl}phenoxy)pyridin-2-yl]-1H-pyrrol-3-yl}carbonyl)amino]propyl}carbamate]
24 nM	35 nM	35 nM	Cc1ccc(F)c(NC(=O)c2ccc(F)c(Oc3ccnc(-c4cc(C(=O)NCCCN5CCOCC5)c[nH]4)c3)c2)c1 [Example 254, 5-[4-(2-fluoro-5-{[(2-fluoro-5-methylphenyl)amino]carbonyl}phenoxy)pyridin-2-yl]-N-(3-morpholin-4-ylpropyl)-1H-pyrrole-3-carboxamide]
28 nM	44 nM	185 nM	CCNC(=O)[C@H](CCC(=O)O)NC(=O)c1c[nH]c(-c2cc(Oc3cc(C(=O)Nc4cc(C)ccc4F)ccc3F)ccn2)c1 [Example 255, 5-(ethylamino)-4-[({5-[4-(2-fluoro-5-{[(2-fluoro-5-methylphenyl)amino]carbonyl}phenoxy)pyridin-2-yl]-1H-pyrrol-3-yl}carbonyl)amino]-5-oxopentanoic acid]
55 nM	24 nM	167 nM	CCNC(=O)[C@H](CCC(=O)OC(C)(C)C)NC(=O)c1c[nH]c(-c2cc(Oc3cc(C(=O)Nc4cc(C)ccc4F)ccc3F)ccn2)c1 [Example 256, tert-butyl 5-(ethylamino)-4-[({5-[4-(2-fluoro-5-{[(2-fluoro-5-methylphenyl)amino]carbonyl}phenoxy)pyridin-2-yl]-1H-pyrrol-3-yl}carbonyl)amino]-5-oxopentanoate]
